How the values were obtained:
[1] = molecular target: T1, p38 MAPKα isoform (MAPK14) (Homo sapiens (Human), UniProt Q16539); assay: p38 MAPKα enzyme inhibition (FRET, Z-LYTE), Method 1; type: biochemical; conditions: Method 1 (Table 4a1)
[2] = molecular target: T1, p38 MAPKα isoform (MAPK14); assay: p38 MAPKα enzyme inhibition (FRET, Z-LYTE), Method 2; type: biochemical; conditions: Method 2, different laboratory (Table 4a2)
Syk = Syk (Homo sapiens (Human), UniProt P43405); assay: Syk enzyme inhibition (FRET, Z-LYTE); type: biochemical; conditions: different laboratory (Table 4a2)
Procedure: The enzyme inhibitory activities of compounds disclosed herein are determined by FRET using synthetic peptides labelled with both donor and acceptor fluorophores (Z-LYTE, Invitrogen Ltd., Paisley, UK).
The relevant enzyme (3000 ng/mL or 2000 ng/mL respectively, 2.5 μL) is incubated with the test compound (either 4 μg/mL, 0.4 μg/mL, 0.04 μg/mL, or 0.004 μg/mL, 2.5 μL each) for 2 hr at RT. The FRET peptides (8 μM, 2.5 μL), and appropriate ATP solutions (2.5 μL, 800 μM for c-Src, and 60 μM ATP for Syk) are then added to the enzymes/compound mixtures and incubated for 1 hr. Development reagent (protease, 5 μL) is added for 1 hr prior to detection in a fluorescence microplate reader (Varioskan® Flash, ThermoFisher Scientific).
In all cases, the site-specific protease cleaves non-phosphorylated peptide only and eliminates the FRET signal. Phosphorylation levels of each reaction are calculated using the ratio of coumarin emission (donor) over fluorescein emission (acceptor), for which high ratios indicate high phosphorylation and low ratios indicate low phosphorylation levels.

[3] = test system: Differentiated U937 cells; assay: (l) Cell viability: MTT assay; type: cell-based, human; conditions: 1 μg/mL
Outline: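 Differentiated U937 cells were exposed to compound at 1 or 10 μg/mL either 4 h in 5% FCS RPMI1640 or 24 h in 10% FCS RPMI1640, then given MTT for 1 h, DMSO-solubilised and read at 550 nm. Percent viability loss versus 0.5% DMSO vehicle; apparent gains appear negative.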

[4] = test system: β-catenin in d-U937 cells; assay: (m) Accumulation of β catenin in d-U937 cells; type: cell-based, human
Outline: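 PMA-differentiated U937 macrophage-type cells (100 ng/mL, 48–72 hr) were exposed to test compound or vehicle for 18 hr, then fixed. β-catenin was measured by cell ELISA (HRP/TMB, OD450-655) and normalised to crystal violet OD595. Signals below 15% of the standard control were designated "-ve".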

Balb/c mice = assay: (A) LPS-induced neutrophil accumulation in mice; type: in vivo, mouse; conditions: mice, test substance at 0.2 mg/mL, dosed 8 hr pre-LPS challenge; for Neutrophil numbers in BAL: +/−SEM, N = 8
Procedure: […] At T=0, mice are placed into an exposure chamber and exposed to LPS (7.0 mL, 0.5 mg/mL solution in PBS) for 30 min). After a further 8 hr the animals are anesthetized, their tracheas cannulated and BALF extracted by infusing and then withdrawing from their lungs 1.0 mL of PBS via the tracheal catheter. Total and differential white cell counts in the BALF samples are measured using a Neubaur haemocytometer. Cytospin smears of the BALF samples are prepared by centrifugation at 200 rpm for 5 min at RT and stained using a DiffQuik stain system (Dade Behring). Cells are counted using oil immersion microscopy. Data for neutrophil numbers in BAL are shown as mean±S.E.M. (standard error of the mean). The percentage inhibition of neutrophil accumulation is calculated for each treatment relative to vehicle treatment.

HRV16 = assay: (j) HRV16 induced CPE in MRC5 cells; type: cell-based; conditions: HRV-16
Procedure: The supernatants are aspirated, and then fresh media added followed by incubation for 4 days. Where appropriate, cells are pre-incubated with compound or DMSO for 2 hr, and the compounds and DMSO added again after washout of the virus.
After washing, 1% SDS in distilled water (100 μL) is added to each well, and the plates are shaken lightly for 1-2 hr prior to reading the absorbance at 660 nm. The percentage inhibition for each well is calculated. The IC50 value is calculated from the concentration-response curve generated by the serial dilutions of the test compounds.

HCK = assay: Enzyme binding assay (Kinomescan)
Procedure: These assays were conducted by DiscoverX (formerly Ambit; San Diego, Calif.). The percentage inhibition produced by incubation with a test compound is calculated relative to the non-inhibited control.

T1 sequence (Q16539 whole entry, canonical isoform): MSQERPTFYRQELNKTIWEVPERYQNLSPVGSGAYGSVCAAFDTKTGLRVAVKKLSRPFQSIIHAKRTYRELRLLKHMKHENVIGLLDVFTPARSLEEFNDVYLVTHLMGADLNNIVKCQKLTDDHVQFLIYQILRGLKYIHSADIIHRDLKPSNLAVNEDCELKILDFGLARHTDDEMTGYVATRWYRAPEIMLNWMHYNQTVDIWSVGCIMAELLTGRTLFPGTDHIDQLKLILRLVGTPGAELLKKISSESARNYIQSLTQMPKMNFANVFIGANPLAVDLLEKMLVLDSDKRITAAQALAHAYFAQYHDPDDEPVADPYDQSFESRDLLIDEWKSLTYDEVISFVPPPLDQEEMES

| IC50 [1] | IC50 [2] | IC50 (Syk) | % Inhibition of kinase binding at 500 nM HCK (HCK) | Structure (SMILES) | Cell viability at time point in d-U937 cells 4 h [3] | Cell viability at time point in d-U937 cells 24 h [3] | β-catenin inductive effect relative to the effect produced by the Reference Compound at 1 μg/mL ([4]; test concentration of 10 μg/mL, found to be negative) | % inhibition of neutrophil numbers in BAL (Balb/c mice) | Neutrophil numbers in BAL (Balb/c mice) | IC50 (HRV16) | % β-catenin induction ([4]; 1 μg/mL test compound) |
| --- | --- | --- | --- | --- | --- | --- | --- | --- | --- | --- | --- |
| 49 nM | 174 nM | 43 nM | – | COc1cc(Nc2nccc(Oc3ccc(NC(=O)Nc4cc(C(F)(F)C(F)(F)F)nn4-c4ccc(C)cc4)c4ccccc34)n2)cc(C(=O)NCCN2CCOCC2)c1 [Example 9, 3-Methoxy-N-(2-morpholinoethyl)-5-((4-((4-(3-(3-(perfluoroethyl)-1-(p-tolyl)-1H-pyrazol-5-yl)ureido)naphthalen-1-yl)oxy)pyrimidin-2-yl)amino)benzamide] | −ve (−ve and +ve indicate that the value is below and above respectively, the no significant effect threshold, defined as 30% inhibition at 1 μg/mL at the time point indicated.) | −ve (−ve and +ve indicate that the value is below and above respectively, the no significant effect threshold, defined as 30% inhibition at 1 μg/mL at the time point indicated.) | less than 15% | 51% | 8.0 ± 1.6 ×10^5/mL | – | – |
| 2 nM | 37 nM | – | – | COc1ccc(-n2nc(C(C)C)cc2NC(=O)Nc2ccc(Oc3ccnc(Nc4cc(OC)cc(C(=O)NCCN5CCOCC5)c4)n3)c3ccccc23)cc1 [Example 53, 3-((4-((4-(3-(3-isopropyl-1-(4-methoxyphenyl)-1H-pyrazol-5-yl)ureido)naphthalen-1-yl)oxy)pyrimidin-2-yl)amino)-5-methoxy-N-(2-morpholinoethyl)benzamide] | −ve (−ve and +ve indicate that the value is below and above respectively, the no significant effect threshold, defined as 30% inhibition at 1 μg/mL at the time point indicated.) | −ve (−ve and +ve indicate that the value is below and above respectively, the no significant effect threshold, defined as 30% inhibition at 1 μg/mL at the time point indicated.) | – | – | – | 2 nM | – |
| – | – | – | 100% | COCC(=O)Nc1cc(Oc2ccc(NC(=O)Nc3cc(C(C)(C)C)nn3-c3ccc(C)cc3)c3ccccc23)ccn1 [Reference Compound, N-(4-(4-(3-(3-tert-butyl-1-p-tolyl-1H-pyrazol-5-yl)ureido)naphthalen-1-yloxy)pyridin-2-yl)-2-methoxyacetamide, reference compound] | −ve (−ve and +ve indicate that the value is below and above respectively, the no significant effect threshold, defined as 30% inhibition at 1 μg/mL at the time point indicated.) | +ve (−ve and +ve indicate that the value is below and above respectively, the no significant effect threshold, defined as 30% inhibition at 1 μg/mL at the time point indicated.) | – | 60% | 5.6 ± 0.86 ×10^5/mL | – | 208% |

— patent US9701670B2, “Pyrazolyl-ureas as kinase inhibitors” (RESPIVERT LIMITED, priority 2013, dated 2017)
